Test results: patent US7101878B1 (Agouron Pharmaceuticals, Inc., priority 1998, dated 2006)

These compounds were tested against T1, mouse GnRH receptor (Mus musculus, UniProt Q01776) (assay: Radioligand binding, 125I-GnRH-A, 293 cells expressing mouse GnRH receptors). Settings: 10 uM; read-out: % Inhib. @ 10 uM mGnRH.
T1 construct: expressed in transfected cells; host or cells: 293 cells
T1 sequence (Q01776 1-327): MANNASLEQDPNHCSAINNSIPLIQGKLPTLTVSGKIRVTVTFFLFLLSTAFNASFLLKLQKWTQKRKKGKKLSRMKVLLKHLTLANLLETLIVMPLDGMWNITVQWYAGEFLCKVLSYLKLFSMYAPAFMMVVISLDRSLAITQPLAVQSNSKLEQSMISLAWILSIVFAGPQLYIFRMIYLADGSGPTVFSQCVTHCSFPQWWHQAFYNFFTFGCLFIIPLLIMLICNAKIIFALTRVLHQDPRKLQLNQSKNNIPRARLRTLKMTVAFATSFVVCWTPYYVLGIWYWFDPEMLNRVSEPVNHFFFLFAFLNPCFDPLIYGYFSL
Protocol: All compounds were diluted in 1% DMSO (final assay concentration) in binding assay buffer. […] Reactions were terminated by rapid filtration onto 96-well Packard GF/C filters soaked in 0.1% polyethyleneimine. Filters were washed three times with PBS buffer, dried and counted on a Packard Topcount by liquid scintillation counting.
Assay conditions were identical for assessing compound activities at other species. […] IC50 values for control peptides and test compounds were calculated utilizing GraphPad Prism™ software.
The reaction mixture was vortexed and incubated for 1 min at room temperature. After one min, the mixture was vortexed and allowed to incubate for an additional minute. 2 ml of 0.5 M acetic acid/1% BSA was added to the reaction tube and the mixture was added to a C18 Sep-Pak cartridge. The cartridge was washed with subsequent washes of 5 ml H2O and 5 ml 0.5M acetic acid and then eluted with 5×1 ml of 60% CH3CN/40% 0.5M acetic acid. The eluate was diluted with 3× volume of HPLC buffer A (0.1% TFA in H2O) and loaded onto a C18 column. […] The radioactive fractions (750 ed/fraction) are collected into clean polypropylene tubes containing 100 μl of 10% BSA. Fractions were assessed for biological activity by radioligand binding.

SMILES	inhibition at 10 µM
Cc1cc2c(cc1Cc1ccc(C(=O)NCC3CCCCC3)o1)C(C)(C)CCC2(C)C [drawing 1302]	72%
COc1cc2c(cc1OC)C(CC#N)N(C(=O)c1ccc(Cc3cc4c(cc3C)C(C)(C)CCC4(C)C)o1)CC2 (centres unmarked) [drawing 1582]	52%
Cc1cc2c(cc1Cc1ccc(C(=O)N(CCN(C)C)Cc3cccc4ccccc34)o1)C(C)(C)CCC2(C)C [drawing 1489]	103%
CCSCCNC(=O)c1ccc(Cc2cc3c(cc2C)C(C)(C)CCC3(C)C)o1 [drawing 1588]	99%
CCCCN(CCC#N)C(=O)c1ccc(Cc2cc3c(cc2C)C(C)(C)CCC3(C)C)o1	87%
Cc1cc2c(cc1Cc1ccc(C(=O)N(Cc3cccc(Oc4cccc(C(F)(F)F)c4)c3)CC(C)(C)CN(C)C)o1)C(C)(C)CCC2(C)C	89%
Cc1cc2c(cc1Cc1ccc(C(=O)NCC(O)c3ccccc3)o1)C(C)(C)CCC2(C)C (centres unmarked) [drawing 1470]	101%
CC(=O)N1CCN(C(=O)c2ccc(Cc3cc4c(cc3C)C(C)(C)CCC4(C)C)o2)CC1 [drawing 1424]	71%
CCN(C(=O)c1ccc(Cc2cc3c(cc2C)C(C)(C)CCC3(C)C)o1)C1CCCCC1 [drawing 1524]	100%
Cc1cc2c(cc1Cc1ccc(C(=O)NCCc3ccc(F)cc3)o1)C(C)(C)CCC2(C)C [drawing 1574]	79%
Cc1cc2c(cc1Cc1ccc(C(=O)N(CCCO)Cc3ccc(Cl)cc3Cl)o1)C(C)(C)CCC2(C)C	94%
CCOC(CN(Cc1ccncc1)C(=O)c1ccc(Cc2cc3c(cc2C)C(C)(C)CCC3(C)C)o1)OCC	31%
Cc1cc2c(cc1Cc1ccc(C(=O)N(Cc3cccc(Cl)c3)Cc3cccc(Cl)c3)o1)C(C)(C)CCC2(C)C	17%
Cc1cc2c(cc1Cc1ccc(C(=O)NCCCCCO)o1)C(C)(C)CCC2(C)C [drawing 1437]	99%
Cc1cc2c(cc1Cc1ccc(C(=O)N3CCCC4CCCCC43)o1)C(C)(C)CCC2(C)C (centres unmarked)	94%
Cc1cc2c(cc1Cc1ccc(C(=O)N[C@H]3CC[C@@H](O)CC3)o1)C(C)(C)CCC2(C)C	82%
CC1(C)CCC(C)(C)c2cc(Cc3ccc(C(=O)NC4c5ccccc5-c5ccccc54)o3)ccc21	53%
Cc1cc2c(cc1Cc1ccc(C(=O)NCCc3ccc(OCc4ccccc4)c(OCc4ccccc4)c3)o1)C(C)(C)CCC2(C)C	20%
C=CCN1CCN(C(=O)c2ccc(Cc3cc4c(cc3C)C(C)(C)CCC4(C)C)o2)CC1	95%
CC(=O)N(C)C1CCN(C(=O)c2ccc(Cc3cc4c(cc3C)C(C)(C)CCC4(C)C)o2)C1 (centres unmarked) [drawing 1441]	74%
Cc1cc2c(cc1Cc1ccc(C(=O)N3CCCC(C(=O)NC(c4ccccc4)c4ccccc4)C3)o1)C(C)(C)CCC2(C)C (centres unmarked)	9%
CCN1CC(N(Cc2ccc(N(C)C)cc2)C(=O)c2ccc(Cc3cc4c(cc3C)C(C)(C)CCC4(C)C)o2)CN1CC [drawing 1566]	95%
CCN1CC(NC(=O)c2ccc(Cc3cc4c(cc3C)C(C)(C)CCC4(C)C)o2)CN1CC	91%
Cc1cc2c(cc1Cc1ccc(C(=O)NCC(F)(F)F)o1)C(C)(C)CCC2(C)C [drawing 1271]	26%
Cc1cc2c(cc1Cc1ccc(C(=O)N3CC4(C)CC3CC(C)(C)C4)o1)C(C)(C)CCC2(C)C (centres unmarked)	100%
CCOC(=O)CC(C)(NC(N)=O)NC(=O)c1ccc(Cc2cc3c(cc2C)C(C)(C)CCC3(C)C)o1 (centres unmarked)	25%
Cc1cc2c(cc1Cc1ccc(C(=O)N(CCC#N)Cc3ccccc3)o1)C(C)(C)CCC2(C)C	74%
COc1ccccc1CN(C(=O)c1ccc(Cc2cc3c(cc2C)C(C)(C)CCC3(C)C)o1)C1CCN(Cc2ccccc2)C1 (centres unmarked) [drawing 1558]	91%
C=CCN(CC=C)C(=O)c1ccc(Cc2cc3c(cc2C)C(C)(C)CCC3(C)C)o1 [drawing 1440]	83%
Cc1cc2c(cc1Cc1ccc(C(=O)NC(C)(C)CNC(=O)C(F)(F)F)o1)C(C)(C)CCC2(C)C	37%

Same assay, conditions: 1 h, substrate remaining; 10 uM compound; closer to zero = closer to 100% inhibition; read-out: S%R 10 uM mGnRHR

SMILES	remaining activity at 10 µM
CCN(C(=O)c1ccc(Cc2cc3c(cc2C)C(C)(C)CCC3(C)C)o1)C1CCCCC1 [Compound 664]	1%
Cc1cc2c(cc1Cc1ccc(C(=O)N3CCC(CNC(=O)C(F)(F)F)CC3)o1)C(C)(C)CCC2(C)C [Compound 698]	59%
Cc1cc2c(cc1Cc1ccc(C(=O)NCCS)o1)C(C)(C)CCC2(C)C [Compound 609]	47%
COc1cc(CNC(=O)c2ccc(Cc3cc4c(cc3C)C(C)(C)CCC4(C)C)o2)cc(OC)c1 [Compound 490]	4%
Cc1cc2c(cc1Cc1ccc(C(=O)NCc3ccc(-c4csnn4)cc3)o1)C(C)(C)CCC2(C)C [Compound 478]	3%
Cc1cc2c(cc1Cc1ccc(C(=O)N3CCC4(C)CC(C)(C)CC45CC35)o1)C(C)(C)CCC2(C)C (centres unmarked) [Compound 634]	1%
Cc1cc2c(cc1Cc1ccc(C(=O)N3CCN(CC(=O)N4CCCC4)CC3)o1)C(C)(C)CCC2(C)C [Compound 555]	21%
Cc1cc2c(cc1Cc1ccc(C(=O)N(CCCN3CCN(C)CC3)Cc3ccc(F)cc3)o1)C(C)(C)CCC2(C)C [Compound 583]	-3%
Cc1cc2c(cc1Cc1ccc(C(=O)N(Cc3cccnc3)CC3CC=CCC3)o1)C(C)(C)CCC2(C)C (centres unmarked) [Compound 691]	7%
COc1ccc(C(NC(=O)c2ccc(Cc3cc4c(cc3C)C(C)(C)CCC4(C)C)o2)C2CC2)cc1 (centres unmarked) [Compound 578]	17%
Cc1cc2c(cc1Cc1ccc(C(=O)NCc3ccc(F)c(F)c3)o1)C(C)(C)CCC2(C)C [Compound 519]	0%
Cc1cc2c(cc1Cc1ccc(C(=O)NCCCn3ccnc3)o1)C(C)(C)CCC2(C)C [Compound 468]	-10%
Cc1cc2c(cc1Cc1ccc(C(=O)N(Cc3ccsc3)C3CCN(Cc4ccccc4)C3)o1)C(C)(C)CCC2(C)C (centres unmarked) [Compound 612]	9%
Cc1cc2c(cc1Cc1ccc(C(=O)NCC3CCCC(CNc4nccc(NCC5CCCO5)n4)C3)o1)C(C)(C)CCC2(C)C (centres unmarked) [Compound 492]	-7%
Cc1cc2c(cc1Cc1ccc(C(=O)NCc3ccc(C(=O)O)cc3)o1)C(C)(C)CCC2(C)C [Compound 497]	2%
Cc1cc2c(cc1Cc1ccc(C(=O)NCCCCNc3nccc(NCC4CCCO4)n3)o1)C(C)(C)CCC2(C)C (centres unmarked) [Compound 487]	3%

SMILES	remaining activity at 10 µM
Cc1cc2c(cc1Cc1ccc(C(=O)N(CCN(C)C)Cc3cccc4ccccc34)o1)C(C)(C)CCC2(C)C [Compound 575]	-3%
Cc1cc2c(cc1Cc1ccc(C(=O)NCCCN3CCCCC3)o1)C(C)(C)CCC2(C)C [Compound 505]	7%
Cc1cc2c(cc1Cc1ccc(C(=O)NCCNc3nccc(NCC4CCCO4)n3)o1)C(C)(C)CCC2(C)C (centres unmarked) [Compound 514]	2%
Cc1cc2c(cc1Cc1ccc(C(=O)N(C)CC#N)o1)C(C)(C)CCC2(C)C [Compound 580]	18%
Cc1cc2c(cc1Cc1ccc(C(=O)N(CCN3CCCCC3)Cc3ccccc3)o1)C(C)(C)CCC2(C)C [Compound 603]	-4%
CCSCCNC(=O)c1ccc(Cc2cc3c(cc2C)C(C)(C)CCC3(C)C)o1 [Compound 655]	2%
Cc1cc2c(cc1Cc1ccc(C(=O)N3CCCC(C)(C)C3)o1)C(C)(C)CCC2(C)C [Compound 657]	3%
CCN1CC(N(CCC(C)c2ccccc2)C(=O)c2ccc(Cc3cc4c(cc3C)C(C)(C)CCC4(C)C)o2)CN1CC (centres unmarked) [Compound 668]	6%
Cc1cc2c(cc1Cc1ccc(C(=O)N(Cc3ccco3)C3CC(=O)N(C)C3=O)o1)C(C)(C)CCC2(C)C (centres unmarked) [Compound 606]	32%
Cc1cc2c(cc1Cc1ccc(C(=O)N(Cc3ccco3)C3CCN(Cc4ccccc4)C3)o1)C(C)(C)CCC2(C)C (centres unmarked) [Compound 681]	6%
CCCN(Cc1ccc([N+](=O)[O-])cc1)C(=O)c1ccc(Cc2cc3c(cc2C)C(C)(C)CCC3(C)C)o1 [Compound 589]	35%
Cc1cc2c(cc1Cc1ccc(C(=O)NC(C)CO)o1)C(C)(C)CCC2(C)C (centres unmarked) [Compound 685]	19%
Cc1cc2c(cc1Cc1ccc(C(=O)NCCc3ccc(N)cc3)o1)C(C)(C)CCC2(C)C [Compound 503]	-3%
Cc1cc2c(cc1Cc1ccc(C(=O)N3CCCC3C)o1)C(C)(C)CCC2(C)C (centres unmarked) [Compound 659]	-2%
Cc1cc2c(cc1Cc1ccc(C(=O)NCCN3CCNC3=O)o1)C(C)(C)CCC2(C)C [Compound 520]	-3%

Same assay, conditions: read-out: % Inhib. @ 10 uM mGnRH

SMILES	inhibition at 10 µM
Cc1cc2c(cc1Cc1ccc(C(=O)N3CCC(O)(O)CC3)o1)C(C)(C)CCC2(C)C	22%
